These results are taken from patent US20120225862A1, “HETEROARYL BENZAMIDES, COMPOSITIONS AND METHODS OF USE” (AUCKLAND UNIVSERVICES LIMITED, priority 2009, published 2012).

Molecules are shown by their SMILES.

The subject of one series is RCC4. In words: XTT IC50 / viability assay, RCC4 cells. It counts as cell-based, human. As to conditions: Homo sapiens, RCC4, 96 h; XTT assay, four days. In short, it runs like this: (§1)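 RCC4 parental and VHL-reintroduced RCC4/VHL cells (DMEM, 10% FCS) treated with serially diluted drug for four days. Viability by XTT (0.3 mg/mL) with N-methyl dibenzopyrazine methyl sulfate, 1–2 h at 37 °C, absorbance 450 nm; IC50 by linear interpolation.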
A general note: Tetrazolium assays rely on reduction of a dye to a coloured formazan, in cell work by metabolically active cells.

The test system of the next series is RCC4/VHL. In words: XTT IC50 assay, selectivity RCC4 versus RCC4 with VHL-reintroduced. The class given is cell-based, human. As to conditions: selectivity ratio of XTT IC50 values, RCC4 vs RCC4/VHL. In short, it runs like this: as §1

Regarding `O=C(Nc1ncccn1)c1ccc(CNS(=O)(=O)c2ccccc2)cc1` [Example 9, 4-(Phenylsulfonamidomethyl)-N-(pyrimidin-2-yl)benzamide], the melting point lay within 180 to 182 °C. Besides, the IC50 in the series with RCC4 was more than 20000 nM.
In the same order, the values of `COc1ccncc1NC(=O)c1ccc(CNS(=O)(=O)c2ccc(C(C)(C)C)cc2)cc1` [Example 124, 4-({[(4-tert-Butylphenyl)sulfonyl]amino}methyl)-N-(4-methoxy-3-pyridinyl)benzamide] are 231 to 233 °C and more than 20000 nM.
`CC(C)(C)c1ccc(S(=O)(=O)NCc2ccc(C(=O)Nc3cccnc3)cc2F)cc1` [Example 148, 4-({[(4-tert-Butylphenyl)sulfonyl]amino}methyl)-3-fluoro-N-(3-pyridinyl)benzamide]: the melting point is 198 to 200 °C.
As to `O=C(Nc1cccnc1)c1ccc(CNS(=O)(=O)c2ccc(C34CC5CC(CC(C5)C3)C4)cc2)cc1` (hydrate or solvate) [Example 39, 4-[({[4-(1-Adamantyl)phenyl]sulfonyl}amino)methyl]-N-(3-pyridinyl)benzamide], the melting point was 220 to 222 °C.
`CC(C)(C)c1ccc(S(=O)(=O)NCc2ccc(C(=O)Nc3ccncc3)cc2)cc1` [Example 106, 4-((4-tert-Butylphenylsulfonamido)methyl)-N-(pyridin-4-yl)benzamide] came in with a melting point of 261 to 263 °C.
On the same count and under the same terms, the result for `Cc1cc(C(=O)Nc2cccnc2)ccc1CNS(=O)(=O)c1ccc(C(C)(C)C)cc1` [Example 147, 4-({[(4-tert-Butylphenyl)sulfonyl]amino}methyl)-3-methyl-N-(3-pyridinyl)benzamide] reads 203 to 205 °C; that for `Cc1cc(CNS(=O)(=O)c2ccc(C(C)(C)C)cc2)ccc1C(=O)Nc1cccnc1` [Example 145, 4-({[(4-tert-Butylphenyl)sulfonyl]amino}methyl)-2-methyl-N-(3-pyridinyl)benzamide], 162 to 163 °C; that for `CC(C)(C)c1ccc(S(=O)(=O)NCc2ccc(C(=O)Nc3cccnc3)c(F)c2)cc1` [Example 146, 4-({[(4-tert-Butylphenyl)sulfonyl]amino}methyl)-2-fluoro-N-(3-pyridinyl)benzamide], 185 to 187 °C.
In the case of `CC(=O)Nc1ccc(S(=O)(=O)NCc2ccc(C(=O)Nc3cccnc3)cc2)cc1` [Example 42, 4-((4-Acetamidophenylsulfonamido)methyl)-N-(pyridin-3-yl)benzamide], the IC50 with RCC4 was 1000 to 20000 nM. Besides, in the series on RCC4/VHL, the “Ratio (RCC4:RCC/VHL)” value is “a (“a” reflects a ratio of RCC4/RCC-VHL+ ranging from 1 to 10)”.
In the same order, the values of `O=C(Nc1cccnc1)c1ccc(CNS(=O)(=O)c2ccc(-n3cccn3)cc2)cc1` [Example 58, 4-[({[4-(1H-Pyrazol-1-yl)phenyl]sulfonyl}amino)methyl]-N-(3-pyridinyl)benzamide] are 1000 to 20000 nM and “a (“a” reflects a ratio of RCC4/RCC-VHL+ ranging from 1 to 10)”.
As for `N#Cc1cc(S(=O)(=O)NCc2ccc(C(=O)Nc3cccnc3)cc2)ccc1F` [Example 71, 4-((3-Cyano-4-fluorophenylsulfonamido)methyl)-N-(pyridin-3-yl)benzamide], the melting point lay in the range of 211 to 213 °C.
Turning to `Nc1cccc(S(=O)(=O)NCc2ccc(C(=O)Nc3cccnc3)cc2)c1` [Example 17, 4-((3-Aminophenylsulfonamido)methyl)-N-(pyridin-3-yl)benzamide], in the series on RCC4, the IC50 is 1000 to 20000 nM. Also, the “Ratio (RCC4:RCC/VHL)” value with RCC4/VHL is listed as “b (“b” reflects from 10 to 100)”.
In the same order, the values of `N#Cc1cccc(S(=O)(=O)NCc2ccc(C(=O)Nc3cccnc3)cc2)c1` [Example 24, 4-((3-Cyanophenylsulfonamido)methyl)-N-(pyridin-3-yl)benzamide] are 1000 to 20000 nM and “a (“a” reflects a ratio of RCC4/RCC-VHL+ ranging from 1 to 10)”.
For `CCCc1ccc(S(=O)(=O)NCc2ccc(C(=O)Nc3cccnc3)cc2)cc1` [Example 37, 4-((4-Propylphenylsulfonamido)methyl)-N-(pyridin-3-yl)benzamide], in that order: less than 1000 nM and “b (“b” reflects from 10 to 100)”.
In the same order, the values of `COc1ccc(S(=O)(=O)NCc2ccc(C(=O)Nc3cccnc3)cc2)cc1` [Example 33, 4-((4-Methoxyphenylsulfonamido)methyl)-N-(pyridin-3-yl)benzamide] are 1000 to 20000 nM and “b (“b” reflects from 10 to 100)”.
For `CCCN(CCC)Cc1ccc(S(=O)(=O)NCc2ccc(C(=O)Nc3cccnc3)cc2)cc1` [Example 79, 4-{[({4-[(Dipropylamino)methyl]phenyl}sulfonyl)amino]methyl}-N-(3-pyridinyl)benzamide], in the series on RCC4, the IC50 was less than 1000 nM. The “Ratio (RCC4:RCC/VHL)” value in the series on RCC4/VHL is reported as “b (“b” reflects from 10 to 100)”.
With `CN1CCN(c2cccc(S(=O)(=O)NCc3ccc(C(=O)Nc4cccnc4)cc3)c2)CC1` [Example 132, 4-[({[3-(4-Methyl-1-piperazinyl)phenyl]sulfonyl}amino)methyl]-N-(3-pyridinyl)benzamide], the IC50 with RCC4 is less than 1000 nM. Moreover, the “Ratio (RCC4:RCC/VHL)” value in the series with RCC4/VHL is listed as “b (“b” reflects from 10 to 100)”.
As for `CCC(=O)Nc1cccc(S(=O)(=O)NCc2ccc(C(=O)Nc3cccnc3)cc2)c1` [Example 143, 4-[({[3-(Propionylamino)phenyl]sulfonyl}amino)methyl]-N-(3-pyridinyl)benzamide], the melting point was in the range of 215 to 218 °C.
Still for that read-out and setting: to `C=CC(=O)Nc1cccc(S(=O)(=O)NCc2ccc(C(=O)Nc3cccnc3)cc2)c1` [Example 144, 4-[({[3-(Acryloylamino)phenyl]sulfonyl}amino)methyl]-N-(3-pyridinyl)benzamide] belongs 178 to 180 °C.
In the case of `COC1CCN(Cc2ccc(S(=O)(=O)NCc3ccc(C(=O)Nc4cccnc4)cc3)cc2)CC1` [Example 84, 4-{[({4-[(4-Methoxy-1-piperidinyl)methyl]phenyl}sulfonyl)amino]methyl}-N-(3-pyridinyl)benzamide], the IC50 with RCC4 was less than 1000 nM. For the same compound, in the series on RCC4/VHL, the “Ratio (RCC4:RCC/VHL)” value is “c (“c” reflects a ratio of >100)”.
In the same order, the values of `C#Cc1ccc(S(=O)(=O)NCc2ccc(C(=O)Nc3cccnc3)cc2)cc1` [Example 95, 4-((4-Ethynylphenylsulfonamido)methyl)-N-(pyridin-3-yl)benzamide] are 1000 to 20000 nM and “b (“b” reflects from 10 to 100)”.
For `CN(Cc1ccc(C(=O)Nc2cccnc2)cc1)S(=O)(=O)c1ccc(C(C)(C)C)cc1` [Example 138, 4-{[[(4-tert-Butylphenyl)sulfonyl](methyl)amino]methyl}-N-(3-pyridinyl)benzamide], in that order: 1000 to 20000 nM and “a (“a” reflects a ratio of RCC4/RCC-VHL+ ranging from 1 to 10)”.
As to `NCCOCCOCCOCCOCCOCCOCCCc1ccc(S(=O)(=O)NCc2ccc(C(=O)Nc3cccnc3)cc2)cc1` [Example 130, 4-[({[4-(21-Amino-4,7,10,13,16,19-hexaoxahenicos-1-yl)phenyl]sulfonyl}amino)methyl]-N-(3-pyridinyl)benzamide], the IC50 with RCC4 lay within 1000 to 20000 nM. Moreover, in the series on RCC4/VHL, the “Ratio (RCC4:RCC/VHL)” value is reported as “a (“a” reflects a ratio of RCC4/RCC-VHL+ ranging from 1 to 10)”.
For `O=C(Nc1cccnc1)c1ccc(CNS(=O)(=O)c2ccccc2Cl)cc1` [Example 12, 4-((2-Chlorophenylsulfonamido)methyl)-N-(pyridin-3-yl)benzamide], in that order: 1000 to 20000 nM and “a (“a” reflects a ratio of RCC4/RCC-VHL+ ranging from 1 to 10)”.
The compound `O=C(Nc1cccnc1)c1ccc(CNS(=O)(=O)c2cccc(Br)c2)cc1` [Example 22, 4-((3-Bromophenylsulfonamido)methyl)-N-(pyridin-3-yl)benzamide] showed an IC50 in the series with RCC4 of less than 1000 nM. In addition, the “Ratio (RCC4:RCC/VHL)” value with RCC4/VHL is “b (“b” reflects from 10 to 100)”.
For `Cc1ccc(S(=O)(=O)NCc2ccc(C(=O)Nc3cccnc3)cc2)c(C)c1` [Example 64, 4-((2,4-Dimethylphenylsulfonamido)methyl)-N-(pyridin-3-yl)benzamide], in that order: 1000 to 20000 nM and “a (“a” reflects a ratio of RCC4/RCC-VHL+ ranging from 1 to 10)”.
In the same order, the values of `O=C(Nc1cccnc1)c1ccc(CNS(=O)(=O)c2ccc(-c3ccc(F)cc3)cc2)cc1` [Example 55, 4-({[(4′-Fluoro[1,1′-biphenyl]-4-yl)sulfonyl]amino}methyl)-N-(3-pyridinyl)benzamide] are less than 1000 nM and “b (“b” reflects from 10 to 100)”.
Consider `O=C(Nc1cccnc1)c1ccc(CNS(=O)(=O)c2ccc(Cl)c(Cl)c2)cc1` [Example 70, 4-((3,4-Dichlorophenylsulfonamido)methyl)-N-(pyridin-3-yl)benzamide], for which the IC50 with RCC4 is 1000 to 20000 nM. Further, the “Ratio (RCC4:RCC/VHL)” value with RCC4/VHL was “b (“b” reflects from 10 to 100)”.
Regarding `O=C(Nc1cccnc1)c1ccc(CNS(=O)(=O)c2ccc3c(c2)CCC3)cc1` [Example 74, 4-((2,3-Dihydro-1H-indene-5-sulfonamido)methyl)-N-(pyridin-3-yl)benzamide], the IC50 in the series on RCC4 is less than 1000 nM. Further, the “Ratio (RCC4:RCC/VHL)” value in the series on RCC4/VHL is “c (“c” reflects a ratio of >100)”.
In turn, `O=C(Nc1cccnc1)c1ccc(CNS(=O)(=O)c2ccc(C34CC5CC(CC(Cl)(C5)C3)C4)cc2)cc1` (hydrate or solvate) [Example 40, 4-[({[4-(3-chloro-1-adamantyl)phenyl]sulfonyl}amino)methyl]-N-(3-pyridinyl)benzamide] came in with a melting point of 229 to 232 °C.
`CN(C(=O)c1ccc(CNS(=O)(=O)c2ccccc2)cc1)c1cccnc1` [Example 90, N-Methyl-4-{[(phenylsulfonyl)amino]methyl}-N-(3-pyridinyl)benzamide] returned an IC50 with RCC4 of 1000 to 20000 nM. Besides, in the series with RCC4/VHL, the “Ratio (RCC4:RCC/VHL)” value is listed as “a (“a” reflects a ratio of RCC4/RCC-VHL+ ranging from 1 to 10)”.

One may read the IC50 as the point on the concentration scale where inhibition reaches its midpoint. One may read the melting point as the temperature of the solid-liquid transition.
